From PMC13233288, “Spider venom peptides Ht1a and Gg1a are toxic to honeybee parasite Varroa destructor by topical application” (npj Drug Discovery, 2026)
No end group written: not given here.

Tests used:
[1] = test system: VdNaV; assay: Two-electrode voltage clamp, VdNaV expressed in Xenopus laevis oocytes; type: biochemical, V. destructor; details: for varroa vs honeybee NaV channel potency: VdNaV compared with AmNaV, 500 nM
Excerpt: (§1) To examine the activity of sHt1a against target and off-target arthropod voltage-gated sodium (NaV) channels, we used electrophysiological recordings of V. destructor (Vd) or A. mellifera (Am) NaV channels expressed in Xenopus laevis oocytes. The cDNA sequences of the VdNaV (in pGH19; kindly gifted by K. Dong[31]) and AmNaV channel (in pcDNA3.1; Genscript, USA) were confirmed by automated Sanger sequencing (Eurofins Genomics, Germany). RNA was synthesised using T7 polymerase (mMessage mMachine kit, Invitrogen, USA) after linearising the cDNA with an appropriate restriction enzyme (New England Biolabs, USA). NaV channel RNA was microinjected into defolliculated X. laevis oocytes (Nasco®, USA) which were then incubated for 2–3 days at 17 °C in Barth’s medium (in millimolar (mM): 96 NaCl, 2 KCl, 5 HEPES, 1 MgCl2, and 1.8 CaCl2 supplemented with 50 µg/mL gentamycin, pH 7.4 adjusted with NaOH (Sigma, USA)). The use of X. laevis complied with national and Flemish guidelines adhered to by the Ghent University Animal Care and Use Committee. Electrophysiological characteristics were studied using the two-electrode voltage-clamp technique (OC-725C; Warner Instruments, USA) with a 150-µL recording chamber as previously described. All data were filtered at 4 kHz (tunable active filter model 900, Frequency Devices Inc., USA) and digitised at 20 kHz using pClamp 10 software (Molecular Devices, USA). The external recording solution used was ND-100 (in mM: 100 NaCl, 5 HEPES, 1 MgCl2, and 1.8 CaCl2, pH 7.6 adjusted with NaOH; chemicals from Sigma, USA). Microelectrode (Narishige® PC-10 vertical puller) resistances were 0.5–1.0 MΩ when backfilled with 3 M KCl. All experiments were performed at room temperature (~22 °C).
(§2) For electrophysiological experiments, sHt1a dissolved at 50 µM in ND100 was added to the recording chamber containing ND100 to a final concentration of 500 nM. After current stabilisation, normalized conductance-voltage (G-V) and channel availability relationships were obtained by measuring steady-state currents upon stepwise depolarisation for 50 ms from a holding potential of –90 mV in 5 mV increments, followed by a 50 ms pulse at –20 mV. The data were fitted with a single Boltzmann function according to I/Imax (or G/Gmax) = [1+exp(-zF(V-V1/2)/RT)]^−1, where I/Imax is the normalised current amplitude, z is the equivalent charge, V1/2 is the half-activation voltage, F is Faraday’s constant, R is the gas constant, and T is the temperature in Kelvin. Off-line data analysis was performed using Clampfit 10 (Molecular Devices, USA), Excel (Microsoft Office) and Prism 10 (GraphPad). Tests for statistical differences included a student’s t-test for V1/2 values and a Kruskal–Wallis test for current inhibition, with p < 0.05 considered to be significant.

[2] = test system: AmNaV; assay: Two-electrode voltage clamp, AmNaV expressed in Xenopus laevis oocytes; type: biochemical, A. mellifera; details: 500 nM sHt1a
Excerpt: as §1, §2

[3] = VdNav, 500 nM sHt1a, mean ± SEM, n = 5 oocytes
[4] = AmNav, mean ± SEM, n = 6 oocytes

KYCAPRKAVCNTPADCCDKSSRCAYPNYGLGYYLDSEFFGKRKICSWRL (also: bicyclic or more (positions not given here)) [Ht1a, μ-gradutoxin-Ht1a]
reduction in peak VdNaV current ([1]; 500 nM sHt1a, ND-100 pH 7.6, ~22 °C, p = 0.0212 (Kruskal–Wallis)): 25.3 ± 7.8%
varroa vs honeybee NaV channel potency [1]: equal potency
varroa vs honeybee NaV channel potency ([1]; listed as sHt1a): equally active
change in half-maximal activation or inactivation values ([1]; VdNaV, 500 nM sHt1a, vs before treatment): without a significant change
Activation Hill slope [1, 3]: 3.44 ± 0.55
Activation V1/2 [1, 3]: –17.7 ± 0.7 mV
Steady state inactivation Hill slope [1, 3]: –4.90 ± 1.29
Steady state inactivation V1/2 [1, 3]: –40.8 ± 0.5 mV
potency relative to other insect NaV channel targeting spider toxins ([1]; authors' comparison of 500 nM sHt1a data (VdNaV, AmNaV) with literature IC50/EC50): less potent than Tx4(6-1) (IC50 = 25 nM[33]) or Dc1a (EC50 = 65 nM[34]), but similarly potent to Aps III (IC50 = 540 nM[35]) and Jingzhaotoxin-I
reduction in peak AmNaV current ([2]; ND-100 pH 7.6, ~22 °C, p = 0.0095 (Kruskal–Wallis)): 24.7 ± 7.2%
change in half-maximal activation or inactivation values ([2]; AmNaV, vs before treatment): without a significant change
Activation Hill slope [2, 4]: 3.62 ± 0.61
Activation V1/2 [2, 4]: –27.6 ± 1.3 mV
Steady state inactivation Hill slope [2, 4]: –5.12 ± 1.44
Steady state inactivation V1/2 [2, 4]: –48.2 ± 1.0 mV
